One assay relates to Helicoverpa armigera. As to the kind of experiment: Insecticidal activity against Heliothis armigera larvae reared on artificial diet assessed as growth inhibition after 72 hr. Format: functional, organism-based.
Another assay deals with HL-60. As to the kind of experiment: Cytotoxicity against Homo sapiens (human) HL60 cells at 10 uM by MTT assay. Format: functional, cell-based. In general terms: Tetrazolium dyes change colour on reduction, which living cells bring about.
The test system of another assay is KB. In words: Cytotoxicity against Homo sapiens (human) KB cells at 10 uM by MTT assay. Format: functional, cell-based.
In a further assay the test system is Bel-7402. As to the kind of experiment: Cytotoxicity against Homo sapiens (human) Bel7402 cells at 10 uM by MTT assay. Format: functional, cell-based.
For another assay, the system named is BGC-823. As to the kind of experiment: Cytotoxicity against Homo sapiens (human) BGC823 cells at 10 uM by MTT assay. Format: functional, cell-based.
Assay [1] relates to Spodoptera exigua. As to the kind of experiment: Insecticidal activity against Spodoptera exigua larvae reared on artificial diet assessed as mortality rate after 72 hr. The conditions noted are these: for LC50: Spodoptera exigua, 72 h. Format: functional.
Assay [2] concerns Spodoptera exigua. As to the kind of experiment: Insecticidal activity against Spodoptera exigua larvae reared on artificial diet assessed as mortality rate at 96.88 ppm after 72 hr. Format: functional.
Assay [3] has as its system Spodoptera exigua. As to the kind of experiment: Insecticidal activity against Spodoptera exigua larvae reared on artificial diet assessed as mortality rate at 73.63 ppm after 72 hr. Format: functional.
For assay [4], the system named is Spodoptera exigua. As to the kind of experiment: Insecticidal activity against Spodoptera exigua larvae reared on artificial diet assessed as mortality rate at 56.19 ppm after 72 hr. Format: functional.
For assay [5], the system named is Spodoptera exigua. In words: Insecticidal activity against Spodoptera exigua larvae reared on artificial diet assessed as mortality rate at 42.63 ppm after 72 hr. Format: functional.
The subject of assay [6] is Spodoptera exigua. As to the kind of experiment: Insecticidal activity against Spodoptera exigua larvae reared on artificial diet assessed as mortality rate at 32 ppm after 72 hr. Format: functional.
Assay [7] concerns Spodoptera exigua. In words: Insecticidal activity against Spodoptera exigua larvae reared on artificial diet assessed as mortality rate at 95.65 ppm after 72 hr. Format: functional.
Assay [8] deals with Spodoptera exigua. In words: Insecticidal activity against Spodoptera exigua larvae reared on artificial diet assessed as mortality rate at 72.68 ppm after 72 hr. Format: functional.
Assay [9] concerns Spodoptera exigua. As to the kind of experiment: Insecticidal activity against Spodoptera exigua larvae reared on artificial diet assessed as mortality rate at 55.64 ppm after 72 hr. Format: functional.
Assay [10] relates to Spodoptera exigua. As to the kind of experiment: Insecticidal activity against Spodoptera exigua larvae reared on artificial diet assessed as mortality rate at 42.08 ppm after 72 hr. Format: functional.
Assay [11] concerns Spodoptera exigua. As to the kind of experiment: Insecticidal activity against Spodoptera exigua larvae reared on artificial diet assessed as mortality rate at 31.56 ppm after 72 hr. Format: functional.

One may read the LC50 as the concentration lethal to half of the exposed cells or organisms. In general, mortality refers to the share of the test organisms that died.

≈ marks a conversion by molar mass, not a printed value. Calls of active or inactive are those of the source. No cut-off for these calls is given here.

With `CC(C)[C@@]1(O)[C@H](O)[C@@H]2[C@@]3(O)[C@@H]4O[C@@](O)(C[C@@]2(C)[C@@]2(O)CC[C@](C)(O)[C@@H]42)[C@]31C`, in the assay on Helicoverpa armigera, the “growth inhibition (GI)” value is “inactive”.
Regarding `CC(C)[C@@]1(O)[C@H](O[C@@H]2O[C@H](CO)[C@@H](O)[C@H](O)[C@H]2O)[C@@H]2[C@@]3(O)[C@@H]4O[C@@](O)(C[C@@]2(C)[C@@]2(O)CC[C@@H](C)[C@@H]42)[C@]31C`, the result with HL-60, in the assay with KB, with Bel-7402 and with BGC-823 was inactive. Also, the “growth inhibition (GI)” value in the assay on Helicoverpa armigera is “inactive”.
As to `CC(CO[C@@H]1O[C@H](CO)[C@@H](O)[C@H](O)[C@H]1O)[C@@]1(O)[C@H](O)[C@@H]2[C@@]3(O)[C@@H]4O[C@@](O)(C[C@@]2(C)[C@@]2(O)CC[C@@H](C)[C@@H]42)[C@]31C` (stereo partly specified), the result in the assay with HL-60, in the assay with KB, with Bel-7402 and with BGC-823 was inactive. Besides, the “growth inhibition (GI)” value in the assay on Helicoverpa armigera was “inactive”.
For the compound `C[C@@H]1CC[C@@]2(O)[C@@H]1[C@H]1O[C@@]3(O)C[C@]2(C)[C@@H]2[C@@H](O)[C@](O)(C(C)(C)O)[C@@]3(C)[C@]12O`, the result in the assay on HL-60, in the assay with KB, with Bel-7402 and in the assay with BGC-823 was inactive. In the assay with Helicoverpa armigera, the “growth inhibition (GI)” value was “inactive”.
With `CC(C)[C@@]1(O)[C@H](O)[C@@H]2[C@@]3(O)[C@@H]4O[C@@](O)(C[C@@]2(C)[C@@]2(O)CC[C@@H](C)[C@@H]42)[C@]31C` [ITOL A], in the assay with Spodoptera exigua [1], the LC90 came out at 67.68 µg/mL (≈ 184 µM). Moreover, in the assay on Spodoptera exigua [1], the 50% lethal concentration (LC50) was determined as 28.6 µg/mL (≈ 77.7 µM). Also, the mortality at 96.88 ppm in the assay with Spodoptera exigua [2] is 96%. Moreover, the mortality at 73.63 ppm with Spodoptera exigua [3] came out at 94%. The mortality at 56.19 ppm in the assay on Spodoptera exigua [4] came to 83%. In addition, the mortality at 42.63 ppm with Spodoptera exigua [5] was 73%. For the same compound, the mortality at 32 ppm in the assay on Spodoptera exigua [6] was found to be 56%. For the same compound, the result in the assay on HL-60, in the assay with KB, with Bel-7402 and with BGC-823 was inactive. For the same compound, the “growth inhibition (GI)” value with Helicoverpa armigera is “inactive”.
Take `CC(CO)[C@@]1(O)[C@H](O)[C@@H]2[C@@]3(O)[C@@H]4O[C@@](O)(C[C@@]2(C)[C@@]2(O)CC[C@@H](C)[C@@H]42)[C@]31C` (stereo partly specified) [ITOL B]: in the assay on Spodoptera exigua [1], the LC90 was found to be 131.7 µg/mL (≈ 343 µM) and the LC50 was found to be 52.8 µg/mL (≈ 137 µM). In addition, the mortality at 95.65 ppm in the assay with Spodoptera exigua [7] worked out at 77%. Besides, in the assay on Spodoptera exigua [8], the mortality at 72.68 ppm came out at 69%. The mortality at 55.64 ppm with Spodoptera exigua [9] came to 59%. The mortality at 42.08 ppm in the assay with Spodoptera exigua [10] was determined as 31%. Besides, in the assay with Spodoptera exigua [11], the mortality at 31.56 ppm stood at 26%. Also, the “growth inhibition (GI)” value with Helicoverpa armigera was “inactive”.

For the origin of these results see ChEMBL document CHEMBL3046839, “Six insecticidal isoryanodane diterpenoids from the bark and twigs of Itoa orientalis” (2008).
